Measurements published in the supplement of paper PMC10627819.

Experiments:
B. subtilis 168 [1] = assay: fitness (endpoint OD595 vs no drug) (fraction); higher = more growth
In short: (§1)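 Fitness was measured as bacterial growth in 384-well plates inoculated at OD595 0.01 (30 µl, or 55 µl for S. pneumoniae). Media were TSB, LB Lennox or CY, at 37 °C. OD595 was read every 30 min for 14 h and background-subtracted against the first reading. Fitness is OD595 at the transition into stationary phase divided by the robust mean of no-drug control wells, capped at 1.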

S. aureus DSM 20231 [2] = assay: as above
In short: as §1

S. aureus Newman [3] = assay: as above
In short: as §1

B. subtilis 168 [4] = assay: Bliss interaction score (quartile over a dose matrix) (fitness difference); higher = more antagonism (negative = synergy)
In short: (§2)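 The Bliss score is observed minus expected fitness under the product model, reported as quartiles over technical, biological and donor/recipient replicates. Fitness is the OD595 at entry into stationary phase divided by the plate's robust no-drug mean and capped at 1. Single-drug fitness was inferred from combination data.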

S. aureus DSM 20231 [5] = assay: as above
In short: as §2

S. aureus Newman [6] = assay: as above
In short: as §2

S. pneumoniae D39V = assay: as above
In short: as §2
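Wherever Bliss interaction score (quartile over a dose matrix) is given: first quartile when negative (synergy) and third quartile when positive (antagonism).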

CC[C@H]1OC(=O)[C@H](C)[C@@H](O[C@H]2C[C@@](C)(OC)[C@@H](O)[C@H](C)O2)[C@H](C)[C@@H](O[C@@H]2O[C@H](C)C[C@H](N(C)C)[C@H]2O)[C@](C)(O)C[C@@H](C)CN(C)[C@H](C)[C@@H](O)[C@]1(C)O [Azithromycin] + Cc1cc(NS(=O)(=O)c2ccc(N)cc2)no1 [Sulfamethoxazol]
fitness
Details	partner 1 µg/mL	partner 2 µg/mL	partner 4 µg/mL
B. subtilis 168 [1], first compound 0.25 µg/mL	0.901	0.89	0.895
B. subtilis 168 [1], first compound 0.5 µg/mL	0.871	0.834	0.849
S. aureus DSM 20231 [2], first compound 0.125 µg/mL	0.911	0.85	0.913
S. aureus DSM 20231 [2], first compound 0.25 µg/mL	0.85	0.839	0.869
S. aureus DSM 20231 [2], first compound 0.5 µg/mL	–	0.545	0.516
S. aureus Newman [3], first compound 0.125 µg/mL	0.849	0.88	0.86
S. aureus Newman [3], first compound 0.25 µg/mL	0.85	0.869	0.837

one replicate
Details	fitness
B. subtilis 168 [1], first compound 0.5 µg/mL, partner 0.5 µg/mL	0.899
B. subtilis 168 [1], first compound 1 µg/mL, partner 0.5 µg/mL	0.788
B. subtilis 168 [1], first compound 2 µg/mL, partner 0.5 µg/mL	0.029
B. subtilis 168 [1], first compound 2 µg/mL, partner 1 µg/mL	0.105
B. subtilis 168 [1], first compound 2 µg/mL, partner 2 µg/mL	0.126
S. aureus Newman [3], first compound 0.125 µg/mL, partner 8 µg/mL	0.895
S. aureus Newman [3], first compound 0.25 µg/mL, partner 8 µg/mL	0.873
S. aureus Newman [3], first compound 0.5 µg/mL, partner 8 µg/mL	0.893

Details	Bliss interaction score
B. subtilis 168 [4]	0.0534
S. aureus DSM 20231 [5]	-0.0683
S. aureus Newman [6]	-0.0991
S. pneumoniae D39V	0.071

CC[C@H]1OC(=O)[C@H](C)[C@@H](O[C@H]2C[C@@](C)(OC)[C@@H](O)[C@H](C)O2)[C@H](C)[C@@H](O[C@@H]2O[C@H](C)C[C@H](N(C)C)[C@H]2O)[C@](C)(O)C[C@@H](C)CN(C)[C@H](C)[C@@H](O)[C@]1(C)O [Azithromycin] + Cc1ncc([N+](=O)[O-])n1CCO [Metronidazole]
fitness
Details	partner 0.625 µg/mL	partner 1.25 µg/mL	partner 2.5 µg/mL
B. subtilis 168 [1], first compound 0.25 µg/mL	0.917	0.916	0.897
B. subtilis 168 [1], first compound 0.5 µg/mL	–	–	0.878
S. aureus DSM 20231 [2], first compound 0.125 µg/mL	0.932	0.993	≥ 1
S. aureus DSM 20231 [2], first compound 0.25 µg/mL	0.928	0.982	0.949
S. aureus Newman [3], first compound 0.125 µg/mL	0.896	0.915	0.947
S. aureus Newman [3], first compound 0.25 µg/mL	0.831	0.906	0.823
S. aureus Newman [3], first compound 0.5 µg/mL	0.73	–	0.67

fitness, S. aureus Newman [3], one replicate
Details	first compound 0.125 µg/mL	first compound 0.25 µg/mL	first compound 0.5 µg/mL
partner 0.781 µg/mL	0.882	0.942	0.659
partner 1.562 µg/mL	0.875	0.924	0.642
partner 3.124 µg/mL	0.859	0.928	0.635

Details	Bliss interaction score
B. subtilis 168 [4]	0.0931
S. aureus DSM 20231 [5]	0.0787
S. aureus Newman [6]	-0.0641
S. pneumoniae D39V	0.102

CC[C@H]1OC(=O)[C@H](C)[C@@H](O[C@H]2C[C@@](C)(OC)[C@@H](O)[C@H](C)O2)[C@H](C)[C@@H](O[C@@H]2O[C@H](C)C[C@H](N(C)C)[C@H]2O)[C@](C)(O)C[C@@H](C)CN(C)[C@H](C)[C@@H](O)[C@]1(C)O [Azithromycin] + Cc1onc(-c2ccccc2)c1C(=O)N[C@@H]1C(=O)N2[C@@H]1SC(C)(C)[C@@H]2C(=O)O [Oxacillin]
fitness
Details	first compound 0.125 µg/mL	first compound 0.25 µg/mL	first compound 0.5 µg/mL	first compound 1 µg/mL
B. subtilis 168 [1], partner 0.002 µg/mL	–	0.881	0.87	0.535
B. subtilis 168 [1], partner 0.004 µg/mL	–	0.851	0.818	0.503
B. subtilis 168 [1], partner 0.0078 µg/mL	–	≥ 1	0.888	–
B. subtilis 168 [1], partner 0.008 µg/mL	–	0.824	0.842	0.453
B. subtilis 168 [1], partner 0.0155 µg/mL	–	0.964	0.887	–
B. subtilis 168 [1], partner 0.031 µg/mL	–	0.983	0.908	–
S. aureus DSM 20231 [2], partner 0.0156 µg/mL	0.722	0.786	–	–
S. aureus DSM 20231 [2], partner 0.0312 µg/mL	0.617	0.62	0.183	–
S. aureus DSM 20231 [2], partner 0.0625 µg/mL	0.482	0.54	0.379	–
S. aureus Newman [3], partner 0.0156 µg/mL	0.723	0.726	–	–
S. aureus Newman [3], partner 0.0312 µg/mL	0.715	0.725	0.365	–
S. aureus Newman [3], partner 0.0625 µg/mL	0.624	0.622	0.31	–

fitness, B. subtilis 168 [1], one replicate
Details	first compound 0.5 µg/mL	first compound 1 µg/mL	first compound 2 µg/mL
partner 0.075 µg/mL	0.582	0.318	0.0267
partner 0.15 µg/mL	0.037	0.0238	0.016
partner 0.3 µg/mL	0.0266	0.0264	0.0201

Details	Bliss interaction score
B. subtilis 168 [4]	0.0492
S. aureus DSM 20231 [5]	-0.0461
S. aureus Newman [6]	0.0591
S. pneumoniae D39V	0.0949

CC[C@H]1OC(=O)[C@H](C)[C@@H](O[C@H]2C[C@@](C)(OC)[C@@H](O)[C@H](C)O2)[C@H](C)[C@@H](O[C@@H]2O[C@H](C)C[C@H](N(C)C)[C@H]2O)[C@](C)(O)C[C@@H](C)CN(C)[C@H](C)[C@@H](O)[C@]1(C)O [Azithromycin] + O=C(O[C@@H]1Cc2c(O)cc(O)cc2O[C@@H]1c1cc(O)c(O)c(O)c1)c1cc(O)c(O)c(O)c1 [EGCG]
fitness
Details	partner 6.25 µg/mL	partner 12.5 µg/mL	partner 25 µg/mL	partner 50 µg/mL
B. subtilis 168 [1], first compound 0.25 µg/mL	0.859	0.508	0.246	–
B. subtilis 168 [1], first compound 0.5 µg/mL	0.912	0.461	–	–
B. subtilis 168 [1], first compound 1 µg/mL	–	–	0.0462	–
S. aureus DSM 20231 [2], first compound 0.125 µg/mL	–	0.703	0.693	0.614
S. aureus DSM 20231 [2], first compound 0.25 µg/mL	–	0.761	0.695	–
S. aureus Newman [3], first compound 0.125 µg/mL	–	0.759	0.706	0.696
S. aureus Newman [3], first compound 0.25 µg/mL	–	0.726	0.715	0.658
S. aureus Newman [3], first compound 0.5 µg/mL	–	0.545	0.522	0.484

B. subtilis 168 [1], first compound 2 µg/mL, one replicate
Details	fitness
partner 6.25 µg/mL	0.387
partner 12.5 µg/mL	0.229
partner 25 µg/mL	0.201

Details	Bliss interaction score
B. subtilis 168 [4]	-0.0827
S. aureus DSM 20231 [5]	-0.13
S. aureus Newman [6]	-0.0553
S. pneumoniae D39V	0.043
